Data published in patent US20250303156A1, “CONCOMITANT TREATMENT OF TTFIELDS AND HMG-CO A REDUCTASE INHIBITORS” (NOVOCURE GMBH, priority 2024, published 2025).

Tested on: non small cell lung cancer (NSCLC)
Test: clinical study in non small cell lung cancer: survival with statins in addition to TTFields
Assay type: in vivo, human
Conditions: statin plus Docetaxel plus TTFields compared to the same statin plus Docetaxel; FIGS. 5-7
Description: In some aspects, the materials and methods described in Leal et al. “Tumor Treating Fields therapy with standard systemic therapy versus standard systemic therapy alone in metastatic non-small-cell lung cancer following progression on or after platinum-based therapy (LUNAR): a randomised, open-label, pivotal phase 3 study” Lancet Oncol. 2023 September; 24(9):1002-1017 can be used, such methods and materials are hereby incorporated by reference in its entirety herein. The disclosed experiments were based on a clinical trial in which subjects received Docetaxel or a combination of Docetaxel and TTFields. The patients also received statins during the clinical trial. The statins were not part of the clinical trial, however, the patients were previously on statins due to the chronic condition and continued to receive statins.

Row | Compound | median survival of patients
1 | CC(C)c1c(C(=O)Nc2ccccc2)c(-c2ccccc2)c(-c2ccc(F)cc2)n1CC[C@@H](O)C[C@@H](O)CC(=O)O [Atorvastatin, atorvastatin] | increase in median survival
2 | CC(C)c1nc(N(C)S(C)(=O)=O)nc(-c2ccc(F)cc2)c1/C=C/[C@@H](O)C[C@@H](O)CC(=O)O [Rosuvastatin, rosuvastatin] | increase in median survival
